Consider three molecules from patent publication US20150216865A1, “METHODS OF TREATING A BRUTON'S TYROSINE KINASE DISEASE OR DISORDER” (Celgene Avilomics Research, Inc., priority 2012, published 2015).

As a reminder, the inhibition is the share of the control response that was lost under treatment. The low end stands for a weak effect, the high end for a strong effect. For orientation: EC50 means the concentration at which the effect is half-maximal. Read a high EC50 as lower potency in that assay.

Data set [1] relates to PGPS 10S-induced arthritis in rats. Kind of data set: PGPS 10S-induced model of chronic arthritis. The format is in vivo, rat. Here is the method:
PGPS 10S-Induced Model of Chronic Arthritis. Rats were injected intraperitoneal with […] of animal body weight, to induce arthritis. Left and right hind limb lateral ankle widths of each rat were measured three times each prior to PG-PS 10S administration and on day 5. The first inflammatory response peak for both right and left ankles of PG-PS rats was reached on day 4. Rats were assigned to one of five treatment groups. […] Another group was treated with 0.3 mg/kg QD dexamethasone on the 3rd day post first peak (day 7) through day 22.

The target of data set [2] is T1, Btk (Homo sapiens, UniProt Q06187). Kind of data set: Btk target site occupancy ELISA, Ramos cells. The class given is cell-based. The following applies: one hour, read-out: EC90 of Btk occupancy (concentration required for 90% occupancy). Here is the method: (§1) Btk Target Site Occupancy ELISA: An ELISA method for the detection of free uninhibited Btk in mouse, rat, dog, monkey, and human lysates was developed at Celgene Avilomics Research and a validation of this method in human B cell lysate was performed by a CLIA Certified laboratory (Cambridge Biomedical Laboratories, Boston, Mass.) The parameters that were assessed included: accuracy, linearity, dilution, precision (intra and inter-assay), stability, reference range, freeze-thaw cycles, reportable range, specificity, sensitivity, and carryover. […] Standards and samples were transferred to a streptavidin-coated 96-well ELISA plate and mixed while shaking for 1 h at room temperature. […] After wash, goat α-mouse-HRP (1:5000 dilution in PBS+0.05% Tween-20+0.5% BSA) was added and incubated for 1 h at room temperature. The ELISA was developed with addition of tetramethyl benzidine (TMB) followed by Stop Solution and read at OD 450 nm.
T1 sequence (Q06187 whole entry): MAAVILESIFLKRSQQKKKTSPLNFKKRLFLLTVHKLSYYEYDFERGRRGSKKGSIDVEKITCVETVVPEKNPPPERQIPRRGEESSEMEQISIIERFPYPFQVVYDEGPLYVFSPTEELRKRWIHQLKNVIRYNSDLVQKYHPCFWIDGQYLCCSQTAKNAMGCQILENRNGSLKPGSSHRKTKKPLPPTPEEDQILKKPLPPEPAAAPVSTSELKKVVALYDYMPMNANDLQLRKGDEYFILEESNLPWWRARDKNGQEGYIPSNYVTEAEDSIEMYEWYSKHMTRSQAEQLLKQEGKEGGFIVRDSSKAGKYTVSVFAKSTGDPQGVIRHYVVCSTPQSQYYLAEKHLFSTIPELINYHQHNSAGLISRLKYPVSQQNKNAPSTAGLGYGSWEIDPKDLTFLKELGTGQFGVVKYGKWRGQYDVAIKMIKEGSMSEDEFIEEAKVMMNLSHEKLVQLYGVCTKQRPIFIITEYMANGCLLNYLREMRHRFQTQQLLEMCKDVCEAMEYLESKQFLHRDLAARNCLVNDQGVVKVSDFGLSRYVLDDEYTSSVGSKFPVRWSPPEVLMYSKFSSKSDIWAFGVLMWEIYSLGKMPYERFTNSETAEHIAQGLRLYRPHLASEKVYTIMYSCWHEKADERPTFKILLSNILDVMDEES
Background: In an ELISA, binding on a coated surface is turned into a signal by an enzyme label.

In data set [3] the test system is semi-established CIA Dba1 mice. Description: Semi-established collagen induced arthritis (CIA) model. The format is in vivo, mouse. The following applies: for disease incidence: study day 33. The procedure:
Semi-Established Collagen Induced Arthritis (CIA) Arthritis Model. Experiments were carried out at Bolder Biopath, Boulder, Colo. All experiments were carried out in compliance with regulations of the Institutional Animal Care and Use Committee and were conducted in accordance with principles and procedures dictated by the highest standards of humane animal care. Dba1 mice were injected at the base of the tail with 150 μL of Freund's Complete Adjuvant (Sigma) containing bovine type II collagen (Elastin Products, Owensville, Mo.) (2 mg/ml) on day 0 and again on day 21. Mice were randomized into treatment groups on study day 21, and treatment was initiated. Treatment continued daily (3 mg/kg, 10 mg/kg or 30 mg/kg QD at 24 hour intervals) through day 33, and mice were terminated on day 33 (animals 1-6) or day 34 (animals 7-12). Onset of arthritis occurred between study days 21 and 34. Clinical scores were assessed for each of the paws on study days 21-34 using the following scoring system: 0=normal, 1=one hind or fore paw joint affected or minimal diffuse erythema and swelling, 2=two hind or fore paw joints affected or mild diffuse erythema and swelling, 3=three hind or fore paw joints affected or moderate diffuse erythema and swelling, 4=marked diffuse erythema and swelling or =four digit joints affected, 5=severe diffuse erythema and severe swelling entire paw, unable to flex digits. Spleens and plasma were harvested at necropsy (day 33 for animals 1-6 and day 34 for animals 7-12) and paws were removed and fixed in formalin for histopathological analysis.

The target of data set [4] is T1, Btk. Kind of data set: Btk target site occupancy ELISA, human primary naïve B cells. The format is cell-based. The following applies: 10 nM. Here is the method: as §1
Data set [5] has as its system collagen-induced arthritis Dba1 mouse model. Kind of data set: Established collagen induced arthritis model (clinical score, histopathology, body weight). The class given is in vivo. Here is the method: Established Collagen Induced Arthritis Model: Experiments were carried out at Bolder Biopath, Boulder, Colo. All experiments were carried out in compliance with regulations of the Institutional Animal Care and Use Committee and were conducted in accordance with principles and procedures dictated by the highest standards of humane animal care. […] On study days 25-27, onset of arthritis occurred, and mice were randomized into treatment groups (10/treatment group, 4/group for normal). […] Randomization into each group was done after swelling was obviously established in at least one paw, and attempts were made to assure approximately equal mean scores across the groups at the time of enrollment. […] Treatment continued daily (QD at 24 h intervals) through arthritis day 14.

Data set [6] in a line: Plasma level of compound in mice of the Btk resynthesis experiment. The following applies: single oral 50 mg/kg, n=6. The format is in vivo, mouse. Here is the method:
Btk Protein Resynthesis in Mice. […] At 4, 8, 16, 24, 48, 72, and 96 hours after treatment, spleens and serum were harvested (n=6 mice/timepoint). Spleens were homogenized and assayed on the covalent probe ELISA for Btk target site occupancy and compound concentration in serum was measured.

Data set [7] concerns the target T1, Btk. Kind of data set: Immunoblot of Btk kinase activity in human primary naïve B cells. The format is cell-based. The following applies: 10 nM. The procedure: (§2) Following incubation, cells were centrifuged and resuspended in 100 μL of serum-free RPMI and BCR was stimulated with addition of 5 μg/mL α-human IgM. […] Membranes were scanned on a LiCor Odyssey Scanner using infrared fluorescence detection.
On the technique in general: Immunoblotting shows a protein as a band on a membrane.

The target of data set [8] is T2, Btk (Mus musculus, UniProt P35991).
T2 construct: from tissue; host or cells: mouse spleen
T2 sequence (P35991 whole entry): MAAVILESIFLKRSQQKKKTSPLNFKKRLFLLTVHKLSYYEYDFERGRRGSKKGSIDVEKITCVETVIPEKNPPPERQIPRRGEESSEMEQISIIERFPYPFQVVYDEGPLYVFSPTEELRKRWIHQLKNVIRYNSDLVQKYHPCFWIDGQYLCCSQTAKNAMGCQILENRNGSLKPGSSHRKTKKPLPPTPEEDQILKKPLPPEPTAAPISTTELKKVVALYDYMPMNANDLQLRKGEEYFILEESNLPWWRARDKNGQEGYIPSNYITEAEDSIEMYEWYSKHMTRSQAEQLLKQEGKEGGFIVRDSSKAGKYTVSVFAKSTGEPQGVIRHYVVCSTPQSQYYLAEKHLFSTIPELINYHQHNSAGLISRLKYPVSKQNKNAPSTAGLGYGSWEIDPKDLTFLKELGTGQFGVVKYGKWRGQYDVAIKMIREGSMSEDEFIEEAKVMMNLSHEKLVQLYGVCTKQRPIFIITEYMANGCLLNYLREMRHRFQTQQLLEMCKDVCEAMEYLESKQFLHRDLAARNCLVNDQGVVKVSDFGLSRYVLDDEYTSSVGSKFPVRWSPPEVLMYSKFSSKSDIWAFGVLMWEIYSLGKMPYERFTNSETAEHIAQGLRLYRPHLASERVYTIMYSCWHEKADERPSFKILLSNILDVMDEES
Description: Btk protein resynthesis in mice (spleen covalent probe ELISA). The format is in vivo. The procedure: Spleen Homogenization: Spleens were harvested from mice, frozen immediately in liquid nitrogen and stored at −80° C. To generate spleen lysates, each spleen was sliced in half and lysed using a Precellys 24 Bead Homogenizer in 500 μL of BioRad Bio-Plex Lysis Buffer plus protease inhibitors. Supernatant was transferred to a fresh microfuge tube and stored frozen at −80° C. until analysis.
as §1
Btk Protein Resynthesis in Mice. […] Spleens were homogenized and assayed on the covalent probe ELISA for Btk target site occupancy and compound concentration in serum was measured.

The test system of a further data set is naïve human B-cells. Kind of data set: B lymphocyte proliferation (3H-thymidine incorporation). The format is cell-based. The following applies: B-cell; α-human IgM stimulated. The procedure:
B Lymphocyte Proliferation (^3H-Thymidine Incorporation): A suspension of resting purified naïve human B-cells isolated by negative selection (MACS reagent 130-091-150) in RPMI was prepared at 0.4-0.5×10^6 cells per mL. […] Experiments were performed in triplicate.
For orientation: Dividing cells build labelled thymidine or BrdU into new DNA.

Data set [9] has as its target T1, Btk. Description: Immunoblot of Btk signaling in α-IgM stimulated Ramos cells. The format is cell-based. The procedure:
as §2

The target in the next data set is Lyn (Homo sapiens, UniProt P07948). Kind of data set: Biochemical kinase assay, Lyn (probe selectivity). The following applies: read-out: IC50app Lyn.
Lyn, sequence (P07948 whole entry): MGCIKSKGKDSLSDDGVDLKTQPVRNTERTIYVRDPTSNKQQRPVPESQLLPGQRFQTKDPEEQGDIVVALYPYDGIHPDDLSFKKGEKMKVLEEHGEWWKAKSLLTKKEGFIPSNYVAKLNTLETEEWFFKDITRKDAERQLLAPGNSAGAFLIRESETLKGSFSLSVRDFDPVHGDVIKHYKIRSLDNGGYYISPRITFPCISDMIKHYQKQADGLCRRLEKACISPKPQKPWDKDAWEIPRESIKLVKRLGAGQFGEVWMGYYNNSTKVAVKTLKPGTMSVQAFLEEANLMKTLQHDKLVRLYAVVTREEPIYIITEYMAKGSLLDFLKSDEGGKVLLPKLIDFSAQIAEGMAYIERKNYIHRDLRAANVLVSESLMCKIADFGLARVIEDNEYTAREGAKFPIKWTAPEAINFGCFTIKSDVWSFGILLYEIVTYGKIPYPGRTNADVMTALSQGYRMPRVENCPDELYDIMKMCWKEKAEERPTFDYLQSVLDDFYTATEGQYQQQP
Data set [10] addresses T1, Btk. Kind of data set: Btk biochemical kinase assay. The following applies: read-out: IC50apparent, Btk kinase activity.
Another data set concerns the target EGFR (Homo sapiens, UniProt P00533). Description: Biochemical kinase assay, EGFR (probe selectivity). The following applies: read-out: IC50app EGFR.
The target in another data set is Syk (Homo sapiens, UniProt P43405). Description: Biochemical kinase assay, Syk (probe selectivity). The following applies: read-out: IC50app Syk.
The subject of a further data set is KC. Description: Inflammatory chemokine and cytokine analysis in CIA mice, KC. The class given is in vivo, mouse. The following applies: dexamethasone group. The source says: (§3) Inflammatory Chemokine and Cytokine Analysis: At the termination of the CIA study, mice were sacrificed and blood was harvested via cardiac punch using EDTA as an anticoagulant. […] Levels of various mouse cytokines in plasma were quantified using Bioplex® Suspension Array System according to manufacturer's instruction (BioRad, mTNFa (171-G5023M), mIL-6 (171-G5007M), mKC (171-G5018M), mIFNg (171-G5017M), mIL-17 (Z60-00006Z2), mIL-1β (171-G5002M), mMCP-1 (171-G5019M).

The subject of the next data set is IL-6. Kind of data set: Inflammatory chemokine and cytokine analysis in CIA mice, IL-6. The following applies: dexamethasone group. The format is in vivo, mouse.
Text: as §3

For the next data set, the system named is TNF-a. Kind of data set: Inflammatory chemokine and cytokine analysis in CIA mice, TNF-a. The class given is in vivo, mouse. The following applies: dexamethasone group. The procedure:
Inflammatory Chemokine and Cytokine Analysis: At the termination of the CIA study, mice were sacrificed and blood was harvested via cardiac punch using EDTA as an anticoagulant. Following centrifugation, serum was diluted 1:4 with a mouse serum diluents kit (BioRad cat#171-305004). Levels of various mouse cytokines in plasma were quantified using Bioplex® Suspension Array System according to manufacturer's instruction (BioRad, mTNFa (171-G5023M), mIL-6 (171-G5007M), mKC (171-G5018M), mIFNg (171-G5017M), mIL-17 (Z60-00006Z2), mIL-1β (171-G5002M), mMCP-1 (171-G5019M).

Molecules are shown by their SMILES. “Also recorded” adds a separate entry of the source. Marks after values point to notes of the source that are not given here.

EGFR, sequence (P00533 25-1210): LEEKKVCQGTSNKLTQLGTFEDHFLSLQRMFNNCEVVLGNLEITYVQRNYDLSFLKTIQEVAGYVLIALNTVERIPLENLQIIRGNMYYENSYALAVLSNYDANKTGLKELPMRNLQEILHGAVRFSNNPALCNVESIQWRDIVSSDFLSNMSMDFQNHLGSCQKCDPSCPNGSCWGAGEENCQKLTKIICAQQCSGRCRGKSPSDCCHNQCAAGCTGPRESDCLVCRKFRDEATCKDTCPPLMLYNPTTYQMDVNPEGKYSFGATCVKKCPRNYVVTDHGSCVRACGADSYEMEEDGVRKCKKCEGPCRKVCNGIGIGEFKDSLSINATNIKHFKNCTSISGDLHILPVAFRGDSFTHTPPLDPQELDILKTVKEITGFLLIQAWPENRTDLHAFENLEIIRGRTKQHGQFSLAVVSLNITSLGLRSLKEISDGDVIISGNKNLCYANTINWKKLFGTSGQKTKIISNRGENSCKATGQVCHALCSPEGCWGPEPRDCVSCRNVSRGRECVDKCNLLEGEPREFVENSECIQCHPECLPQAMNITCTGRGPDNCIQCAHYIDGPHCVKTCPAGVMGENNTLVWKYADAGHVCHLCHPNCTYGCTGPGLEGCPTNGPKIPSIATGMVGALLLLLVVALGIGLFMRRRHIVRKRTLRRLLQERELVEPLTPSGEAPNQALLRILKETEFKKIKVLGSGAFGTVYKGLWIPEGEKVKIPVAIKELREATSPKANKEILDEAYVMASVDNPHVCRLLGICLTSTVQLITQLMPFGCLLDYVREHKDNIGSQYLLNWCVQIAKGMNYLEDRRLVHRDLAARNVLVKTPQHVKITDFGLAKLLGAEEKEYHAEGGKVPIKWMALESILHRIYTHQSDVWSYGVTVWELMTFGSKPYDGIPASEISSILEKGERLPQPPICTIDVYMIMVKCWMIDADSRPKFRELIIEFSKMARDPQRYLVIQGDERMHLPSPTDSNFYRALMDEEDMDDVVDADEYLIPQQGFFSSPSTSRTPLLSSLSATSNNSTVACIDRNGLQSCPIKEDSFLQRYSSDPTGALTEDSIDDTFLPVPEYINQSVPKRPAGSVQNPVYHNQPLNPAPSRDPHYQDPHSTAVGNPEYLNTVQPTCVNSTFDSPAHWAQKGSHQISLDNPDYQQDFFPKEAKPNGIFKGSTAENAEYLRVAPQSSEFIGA

As for `C=CC(=O)Nc1cccc(Nc2nc(Nc3ccc(OCCOC)cc3)ncc2F)c1` [Compound 1, N-(3-(5-fluoro-2-(4-(2-methoxyethoxyl)phenylamino)pyrimidin-4-ylamino)phenyl)acrylamide], the “spleen enlargement vs vehicle” value in data set [1] (10 mg/kg QD, 30 mg/kg QD and 30 mg/kg QOD) was “significantly prevented spleen enlargement”. Further, in [1] (3, 10, 30 mg/kg QD, 30 mg/kg QOD), the “PGPS 10S-induced arthritis” value is given as “inhibited PGPS 10S-induced arthritis in a dose-dependent manner”. Moreover, the “right and left lateral ankle width vs diseased group” value in data set [1] (PGPS rats, day 7 through day 22) is given as “significantly lower”. On Btk [2], the EC90 was found to be 39 nM. For the same molecule, the disease incidence in data set [3] (3 mg/kg QD) came to 50%; in data set [3] (10 mg/kg QD), 17%; in data set [3] (30 mg/kg QD), 8%. The “body weight loss associated with severity of disease” value in data set [3] (all three dose levels) is reported as “prevented the loss in body weight”. On Btk [4], this molecule had a receptor occupancy at 0.01 µM of 37%. In addition, the “inhibition of histopathologic signs of disease (six joints)” value in [5] (10 mg/kg) is 87%. For the same molecule, the “compound concentration in plasma at the 8 hour timepoint” value in data set [6] was “undetectable in 5/6 mice; also recorded: absent in 5 of 6 animals”. On Btk [7], this molecule had an inhibition at 0.01 µM of 42%. Moreover, the “persistence of action on Btk (occupancy) after circulating compound has disappeared” value on Btk [8] (mice, single oral 50 mg/kg) was above 12 h. Further, the “new Btk protein, % of pre-dose Btk protein levels” value at Btk [8] (mouse spleen, 24 hours after single oral 50 mg/kg) is recorded as 43%; on Btk [8] (mouse spleen, 48 hours after single oral 50 mg/kg) it was 71%. The “time for Btk protein to recover to 50% pre-dose levels” value at Btk [8] (mouse spleen, single oral 50 mg/kg) fell in the range of 24 to 48 h. The same molecule displayed an EC50 with naïve human B-cells of 3 nM. Besides, the “concentration at which 90% of Btk activity was inhibited” value on Btk [9] was 35 nM. Further, the “activation of the downstream kinase Erk” value at Btk [9] (anti-IgM) is on record as “potently inhibited”. The “phosphorylation of Btk on Tyr551” value on Btk [9] (anti-IgM) is given as “no effect”. In addition, the “phosphorylation of the Btk substrate PLCγ2” value on Btk [9] (anti-IgM) is reported as “potently inhibited”.

In the case of `C=CC(=O)Nc1cccc(Nc2nc(Nc3cccc(OCCCNC(=O)CCCC(=O)NCCCOCCOCCOCCCNC(=O)CCCC[C@@H]4SC[C@@H]5NC(=O)N[C@@H]54)c3)ncc2C)c1` [Compound 2], the IC50 at Lyn was above 3500 nM; on Btk [10], 0.5 nM; on EGFR, above 25 nM; on Syk, above 1000 nM.

The molecule `C[C@@H]1C[C@H]2[C@@H]3CCC4=CC(=O)C=C[C@]4(C)[C@@]3(F)[C@@H](O)C[C@]2(C)[C@@]1(O)C(=O)CO` [dexamethasone, reference compound] came in with a KC mean in the data set with KC of 52.9 pg/mL. This molecule yielded a disease incidence in [3] (dexamethasone group) of 0%. The IL-6 mean with IL-6 was 9.8* pg/mL. The “inhibition of histopathologic signs of disease (six joints)” value in [5] (dexamethasone positive control (0.2 mg/kg)) was determined as 82%. The molecule also registered a TNF-a mean in the data set with TNF-a of 131.0 pg/mL.
